Laboratory results: patent US11331364B2, “Use for JNK inhibitor molecules for treatment of various diseases” (Xigen Inflammation Ltd., priority 2014, dated 2022)
“Also recorded” adds a separate entry of the source. Square brackets hold non-standard residues; d marks the D form. Peptide text beside a SMILES is read from it.

Tests used:
[1] = test system: THP1 differentiated macrophages; assay: LPS-induced cytokine release in PMA differentiated THP1 macrophages (ELISA); type: cell-based, human
Procedure: In the following the procedure will be set forth describing how the released amount of several human cytokines after ligand induced secretion from human cells (Blood, WBC, PBMC, purified primary lymphocytes, cell lines, . . . ) was measured.
The technique used is a Sandwich ELISA, which allows measuring the amount of antigen between two layers of antibodies (i.e. capture and detection antibody). The antigen to be measured must contain at least two antigenic sites capable of binding to antibody, since at least two antibodies act in the sandwich. Either monoclonal or polyclonal antibodies can be used as the capture and detection antibodies in Sandwich ELISA systems. Monoclonal antibodies recognize a single epitope that allows fine detection and quantification of small differences in antigen. A polyclonal is often used as the capture antibody to pull down as much of the antigen as possible.
The method may be used to determine the effect of the JNK inhibitors of the present invention in vitro/cell culture. At non toxic doses, compound efficacy is indicated by the decrease of the cytokine levels (the variation of optical density (absorbance at 450 nm)) as compared to non-treated samples and is monitored by ELISA. Results are express in ng/ml.
In the following the procedure will be set forth describing how cytokine production from human PMA differentiated THP1 cells challenged by LPS for 6 h was induced in order to test the ability of JNK inhibitors of the present invention, in particular of a JNK inhibitor with SEQ ID NO: 172, to reduce stimulation-induced cytokine release. THP1 cells were stimulated ex-vivo by different ligands for the readout of cytokine release. At non toxic doses, JNK inhibitor efficacy is indicated by the decrease of the cytokine levels as compared to non-treated samples and is monitored by ELISA. The toxicity of the compound are evaluated by the reduction of a tretazolium salt (MTS) to formazan, giving a purple colour.
The cells were counted. […]

primary human T-cells = assay: IL-2 secretion by primary human T-cells; type: cell-based
Description: The JNK inhibitors used are indicated by their SEQ ID NO: 172 and 197.

[2] = dissolved in 0.9% NaCl, up to 0.4 mg/ml
Description: To receive three different doses (cf. above, groups table) it has been serially diluted (1:10 fold).

[3] = test system: Adriamycin-induced nephropathy in rats; assay: Adriamycin-induced nephropathy; type: in vivo, rat; conditions: 2 mg/kg IV Day 0
Description: Adriamycin treatment induces glomerular disease in rat and mice mimicking human focal segmental and glomerular sclerosis (FSGS). In this model, tubular and interstitial inflammatory lesions occur during the disease course, partly due to heavy proteinuria. In the absence of therapy, kidney disease progresses to terminal renal failure within eight weeks. Podocyte injury is one of the initial steps in the sequences leading to glomerulosclerosis. The aim of the study was to investigate whether a JNK inhibitor could prevent the development of renal lesions and the renal failure.
30 male Sprague-Dawley rats (Charles River) were used in this study (divided into 3 groups of ten rats). Nephropathy was induced by a single intravenous injection of Adriamycin […] on Day 0. The JNK inhibitor of SEQ ID NO: 172 (2 mg/kg; in NaCl 0.9%) or vehicle was administered intravenously into the tail vein on Day 0. The administration volume was 0.2 ml.
Retroorbital blood was collected at Days 7, 14, 28, 42 and 56 from 4 rats per group. Serum creatinine concentrations, blood urea and protidemia were measured using appropriate kits from Advia Chemistry 1650 (Bayer Healthcare AG, Leverkusen, Germany).
Two rats per group were sacrificed on Days 7, 14, 28, 42 and 56 after anesthesia. After animal sacrifice, both kidneys were collected. For histopathological examination fixed tissue specimens were dehydrated in graded alcohol solutions, cleared in toluene, and embedded in paraffin. Sections (4 µm) were stained with periodic acid-Schiff (PAS), and Masson's trichrome staining was performed to detect collagen deposition. Glomerular and tubulointerstitial sclerosis were quantified under microscope.

hJNK1 = biological target: T1, hJNK1 (Homo sapiens, UniProt P45983); assay: hJNK1 | IC50; conditions: read-out: hJNK1 | IC50
T1 construct: His; purchased Upstate 14-327
T1 sequence (P45983 whole entry, looked up): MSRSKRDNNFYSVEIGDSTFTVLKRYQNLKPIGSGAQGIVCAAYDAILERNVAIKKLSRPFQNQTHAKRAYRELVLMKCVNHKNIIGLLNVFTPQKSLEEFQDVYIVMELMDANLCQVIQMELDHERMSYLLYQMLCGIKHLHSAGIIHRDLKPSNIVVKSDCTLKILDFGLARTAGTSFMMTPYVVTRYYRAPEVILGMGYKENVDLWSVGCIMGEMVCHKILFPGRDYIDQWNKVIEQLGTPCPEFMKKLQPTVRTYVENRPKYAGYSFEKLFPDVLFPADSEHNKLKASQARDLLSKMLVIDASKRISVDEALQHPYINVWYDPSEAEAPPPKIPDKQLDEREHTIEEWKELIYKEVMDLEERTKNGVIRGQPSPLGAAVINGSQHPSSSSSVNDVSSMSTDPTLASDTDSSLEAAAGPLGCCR

## CC(C)C[C@H](NC(=O)[C@H](CC(N)=O)NC(=O)[C@H](CC(C)C)NC(=O)[C@@H](NC(=O)[C@@H](C)NC(=O)[C@@H]1CCCN1C(=O)[C@H](CCCNC(=N)N)NC(=O)[C@@H](CCCCN)NC(=O)[C@@H]1CCCN1C(=O)[C@H](CCCNC(=N)N)NC(=O)[C@@H](CCCNC(=N)N)NC(=O)[C@H](CCCNC(=N)N)NC(=O)[C@H](CCCNC(=N)N)NC(=O)[C@H](CCC(N)=O)NC(=O)[C@@H](CCCNC(=N)N)NC(=O)[C@H](CCCNC(=N)N)NC(=O)[C@H](CCCCN)NC(=O)[C@H](CCCCN)NC(=O)[C@H](N)CCCNC(=N)N)[C@@H](C)O)C(=O)N[C@H](Cc1ccccc1)C(N)=O [SEQ ID NO: 172, rKKRrQRRrRPkRPaTLNLf] (H-[dR]KKR[dR]QRR[dR]RP[dK]RP[dA]TLNL[dF]-NH2; N-terminus assumed)
[1]; LPS added for 6 h
  LPS-induced IL6 release: higher potency than D-TAT-IB1 (SEQ ID NO: 197), dTAT (SEQ ID NO: 45) and SP 600125; also recorded: higher potency than D-TAT-IB1 (SEQ ID NO: 197) and L-TAT-IB1 (SEQ ID NO: 196)
[1]; PMA/THP1 differentiated macrophages, LPS
  LPS-induced TNFα release: higher potency than D-TAT-IB1 (SEQ ID NO: 197), dTAT (SEQ ID NO: 45) and SP 600125; also recorded: higher potency than D-TAT-IB1 (SEQ ID NO: 197) and L-TAT-IB1 (SEQ ID NO: 196)
[1]; THP1-PMA-differentiated macrophages, TNF, IL 6, MCP1, 6 h LPS
  LPS-induced cytokine and chemokine release: blocks LPS-induced cytokine and chemokine release
Primary human T-cells
  IL-2 secretion in response to CD3/CD28 stimulation: blocks IL-2 secretion
  IL-2 secretion in response to PMA/Ionomycin: blocks IL-2 secretion
[2]
  solubility: readily soluble and did not fall out of solution
[3]; Day 8
  kidney histopathology (PAS, Masson trichrome): relatively normal appearance
[3]; Day 56
  kidney histopathology (PAS, Masson trichrome): few focal and segmental glomerulosclerosis and tubulointerstitial fibrosis
[3]; throughout the course of the disease
  urea serum level: below 10 mmol/l
hJNK1
  IC50: 722 nM
